# Data as given in patent US7034050B2, “Pseudopeptides growth hormone secretagogues” (priority 2004, dated 2006).
# Key:
# GH release [1] = assay: stimulation of GH release in vitro; type: cell-based
# [2] = biological target: T1, human pituitary gland tissues (Homo sapiens, UniProt Q92847); assay: binding affinity to human pituitary gland tissues; conditions: compared with ghrelin, hexarelin, MK 0677 and JMV 1843
# T1 construct: from tissue; host or cells: human pituitary gland tissue
# [3] = test system: rat epididynial adipocytes; assay: binding affinity to rat epididynial adipocytes; conditions: compared with rat ghrelin, MK 0677 and hexarelin
# GH release [4] = assay: GH release in vivo (neonatal rats injected subcutaneously); set-up: species or system rat
# T1 sequence (Q92847 whole entry): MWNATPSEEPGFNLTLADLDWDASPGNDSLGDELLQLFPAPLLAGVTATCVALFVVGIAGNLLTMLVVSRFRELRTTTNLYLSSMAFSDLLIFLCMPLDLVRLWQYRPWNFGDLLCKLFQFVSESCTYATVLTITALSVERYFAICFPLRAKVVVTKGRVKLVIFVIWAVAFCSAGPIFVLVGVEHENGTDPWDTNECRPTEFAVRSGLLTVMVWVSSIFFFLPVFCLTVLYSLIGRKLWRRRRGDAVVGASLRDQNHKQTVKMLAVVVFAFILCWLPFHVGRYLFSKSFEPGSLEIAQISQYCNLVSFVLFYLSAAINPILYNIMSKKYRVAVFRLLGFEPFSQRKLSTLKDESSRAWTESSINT
Substance,potency in stimulating the GH release in vitro (GH release [1]),binding affinity to human pituitary gland tissues [2],binding affinity to rat epididynial adipocytes [3],potency in stimulating the GH release in vivo (GH release [4]),"amount of growth hormone released (GH release [4]; neonatal rats, subcutaneous injection, compared with MK 0677 and hexarelin)"
Aib-D-Trp-D-Trpψ[CH2—NH—O]Gly-NH2 [IIa],remarkably potent,comparable to that of the natural ligand ghrelin and superior to the binding affinity of the synthetic GH secretagogues,comparable to that of rat ghrelin and superior to that of MK 0677 and hexarelin,remarkably potent,exceeded the amount released when the standard GH secretagogues MK 0677 and hexarelin were administered
Aib-D-Trp-D-Trpψ[CH═N˜O]Gly-NH2 [Ia],remarkably potent,comparable to that of the natural ligand ghrelin and superior to the binding affinity of the synthetic GH secretagogues,comparable to that of rat ghrelin and superior to that of MK 0677 and hexarelin,remarkably potent,–
